# Laboratory results published in PMC11219871, “Epigenetic-based differentiation therapy for Acute Myeloid Leukemia” (Nature Communications, 2024).
# “And” between values parts separate entries of the source, which are not always exact repeats. Identical values can stand only once.
# Key:
# Cytotoxicity (LC50) = format: cell-based; settings: human, PBMCs from healthy donors, 72-h exposure
# HDAC2 = HDAC2 (Homo sapiens, UniProt Q92769); assay: HDAC enzymatic assay, fluorescence-labeled substrate; format: biochemical
# Rag2-/-γc-/- mice = assay: Toxicity assay: hematological and liver parameters, liver histology; format: in vivo, mouse; settings: for ALT (Counts (U/L)) / AST (Counts (U/L)) / Bilirubin (Counts (mg/dl)) / HDL (Counts (mmol/l)) / LCLC3 (Counts (mmol/l)) / UREA (Counts (mg/dl)) / Hematocrit (Counts (%)) / Hemoglobin (Counts (g/dl)) / PLT (Counts (K/O)) / RBC (Counts (K/O)) / WBC (Counts (K/O)): healthy Rag2-/-γc-/- mice, individual mice, 10 mg/kg; for ALT (Counts (U/L)) / AST (Counts (U/L)) / Bilirubin (Counts (mg/dl)) / HDL (Counts (mmol/l)) / LCLC3 (Counts (mmol/l)) / UREA (Counts (mg/dl)): 10 mg/kg i.p. daily for 3 weeks then 7-day washout; for Hematocrit (Counts (%)) / Hemoglobin (Counts (g/dl)) / PLT (Counts (K/O)) / RBC (Counts (K/O)) / WBC (Counts (K/O)): 10 mg/kg i.p. daily for 3 weeks
# Experimental: After treating Rag2^−/−γc^−/− mice with i.p. […] Hematological and liver parameters were measured.
# Hematological parameters, including white blood cells, red blood cells, platelet count, hemoglobin and hematocrit, were measured on a Hemavet Hematology Analyzer (Drew Scientific). Liver enzymes (albumin, alkaline phosphatase, aspartate transaminase, alanine transaminase), cholesterol, bilirubin, urea and bile acid levels were analyzed from mice serum using a C311 Cobas Analyzer (Roche Diagnostics).
# Mice livers were fixed in paraformaldehyde at 4% for 6–8 h, washed twice with saline solution and stored in 70% ethanol. Samples were included in paraffin, and 3-µm serial sections were cut, deparaffinated, and stained with hematoxylin–eosin.
# [1] = tested on: MV4-11 i.v. in BALB/cA Rag2-/-γc-/- mice; assay: Intravenous xenograft model (survival, CD11b in blood, body weight); format: in vivo, mouse; settings: for body weight of mice: intravenous MV4-11 AML mouse model, individual mice
# Experimental: (§1) The human AML MV4-11 and MOLM-13 xenograft mice models were generated by intravenous (i.v.) injection of 10 × 10^6 (MV4-11) or 1 × 10^4 (MOLM-13) cells diluted in 100 µL of saline solution in the tail vein of a 6-8-week-old female BALB/cA Rag2^−/−γc^−/− mice (n = 10). Treatment started 7 or 1 day after MV4-11 or MOLM-13 cells injection, respectively. MV4-11 and MOLM-13 mice were treated with i.p. 10 mg/kg of CM-444 and CM-1758 during 5 consecutive days followed by 2 resting days for 7 and 2 weeks, respectively. The control group received only 80% saline solution, 10% DMSO and 10% Tween 20 (diluents of CM-444 and CM-1758). The mice weight was controlled and remained stable during the treatment. Statistical results were calculated using the statistical software Medcalc. CD11b levels in blood samples from an intravenous MV4-11 mice model were measured by flow cytometry, as described above.
# [2] = tested on: MOLM-13 i.v. in BALB/cA Rag2-/-γc-/- mice; assay: as above; format: in vivo, mouse; settings: for Body weight: intravenous MOLM-13 AML mouse model, individual mice
# Experimental: as §1
# HDAC3 = HDAC3 (Homo sapiens, UniProt O15379); assay: HDAC enzymatic assay, fluorescence-labeled substrate; format: biochemical
# HDAC4 = target: T1, HDAC4 (Homo sapiens, UniProt P56524); assay: HDAC assay (Eurofins); format: biochemical
# T1 construct: purchased Eurofins (contracted assay service)
# CACO-2 permeability = format: in vitro ADME; settings: human
# Experimental: This study was conducted at Wuxi (http://www.wuxi.com/). Caco-2 cells (ATCC) were seeded onto polyethylene membranes in 96-well BD insert plates at 1 × 10^5 cells/cm^2, and the medium was changed every 4 days until the 21st to 28th day for confluent cell monolayer formation. Test compounds were diluted with transport buffer (HBSS with 10 mM HEPES at pH 7.4 ± 0.05) to a concentration of 2 µM (final DMSO concentration adjusted to <1%) and tested bi-directionally to investigate P-glycoprotein-mediated efflux in duplicate. Controls: digoxin (10 μM, bi-directionally), nanodolol and metoprolol (2 μM, apical, A, to basolateral, B). The permeation was assessed over a 120-minute incubation at 37 °C ± 1 °C and 5% CO2 at saturated humidity without shaking. Samples were mixed with acetonitrile containing internal standard and centrifuged at 1520 g for 10 min. Then, 100-μL aliquots of supernatant solutions were diluted with 100 μL of pure water. Concentrations of test and control compounds in starting solution, donor solution, and receiver solution were quantified by LC-MS/MS using a peak area ratio of analyte to internal standard. Permeation of lucifer yellow through the monolayer was measured to evaluate the cellular integrity. The results are the average of two biological replicates.
# HDAC5 = target: T2, HDAC5 (Homo sapiens, UniProt Q9UQL6); assay: HDAC assay (Eurofins); format: biochemical
# T2 construct: purchased Eurofins (contracted assay service)
# T2 sequence (Q9UQL6 whole entry): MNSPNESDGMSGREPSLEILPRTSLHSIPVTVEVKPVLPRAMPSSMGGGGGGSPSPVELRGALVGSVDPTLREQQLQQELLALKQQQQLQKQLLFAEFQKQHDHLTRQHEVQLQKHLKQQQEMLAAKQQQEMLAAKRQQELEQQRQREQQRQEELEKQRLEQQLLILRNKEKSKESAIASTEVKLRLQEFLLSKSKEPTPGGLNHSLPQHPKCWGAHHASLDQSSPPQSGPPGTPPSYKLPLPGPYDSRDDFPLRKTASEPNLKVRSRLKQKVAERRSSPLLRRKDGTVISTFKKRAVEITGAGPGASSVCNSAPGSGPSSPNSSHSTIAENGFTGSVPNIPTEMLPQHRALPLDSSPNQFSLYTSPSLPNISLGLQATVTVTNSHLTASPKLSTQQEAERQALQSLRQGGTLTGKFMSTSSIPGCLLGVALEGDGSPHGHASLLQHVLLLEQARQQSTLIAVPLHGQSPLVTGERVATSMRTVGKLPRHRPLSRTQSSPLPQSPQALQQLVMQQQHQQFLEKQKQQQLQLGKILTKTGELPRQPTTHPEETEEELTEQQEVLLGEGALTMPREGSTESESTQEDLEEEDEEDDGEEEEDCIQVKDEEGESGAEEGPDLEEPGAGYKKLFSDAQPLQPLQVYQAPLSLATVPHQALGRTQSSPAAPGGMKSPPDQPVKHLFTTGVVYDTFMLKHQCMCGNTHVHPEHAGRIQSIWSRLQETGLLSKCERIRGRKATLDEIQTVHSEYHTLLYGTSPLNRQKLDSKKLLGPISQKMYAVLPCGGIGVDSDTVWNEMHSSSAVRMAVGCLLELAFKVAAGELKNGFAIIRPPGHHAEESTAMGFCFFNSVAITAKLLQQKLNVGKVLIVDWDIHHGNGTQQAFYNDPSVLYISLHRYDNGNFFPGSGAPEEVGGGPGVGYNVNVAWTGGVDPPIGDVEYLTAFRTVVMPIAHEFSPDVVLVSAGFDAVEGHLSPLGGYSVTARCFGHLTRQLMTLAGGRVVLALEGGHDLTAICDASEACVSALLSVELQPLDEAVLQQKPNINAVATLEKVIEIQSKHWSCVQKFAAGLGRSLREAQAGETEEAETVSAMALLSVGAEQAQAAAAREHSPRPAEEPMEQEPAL
# HDAC2, sequence (Q92769 whole entry): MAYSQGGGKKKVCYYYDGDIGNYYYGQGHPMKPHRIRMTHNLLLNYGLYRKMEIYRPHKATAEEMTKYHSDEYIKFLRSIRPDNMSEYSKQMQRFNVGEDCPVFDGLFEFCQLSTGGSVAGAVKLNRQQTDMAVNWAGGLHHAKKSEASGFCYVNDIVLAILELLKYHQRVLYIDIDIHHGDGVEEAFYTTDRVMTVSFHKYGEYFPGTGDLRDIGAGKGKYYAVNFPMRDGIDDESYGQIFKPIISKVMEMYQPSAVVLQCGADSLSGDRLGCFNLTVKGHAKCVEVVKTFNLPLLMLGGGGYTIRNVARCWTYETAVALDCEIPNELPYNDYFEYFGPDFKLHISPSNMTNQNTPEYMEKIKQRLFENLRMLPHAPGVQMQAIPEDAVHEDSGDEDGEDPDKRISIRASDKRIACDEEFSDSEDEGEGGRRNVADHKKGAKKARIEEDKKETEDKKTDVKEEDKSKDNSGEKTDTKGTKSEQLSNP
# HDAC3, sequence (O15379 whole entry): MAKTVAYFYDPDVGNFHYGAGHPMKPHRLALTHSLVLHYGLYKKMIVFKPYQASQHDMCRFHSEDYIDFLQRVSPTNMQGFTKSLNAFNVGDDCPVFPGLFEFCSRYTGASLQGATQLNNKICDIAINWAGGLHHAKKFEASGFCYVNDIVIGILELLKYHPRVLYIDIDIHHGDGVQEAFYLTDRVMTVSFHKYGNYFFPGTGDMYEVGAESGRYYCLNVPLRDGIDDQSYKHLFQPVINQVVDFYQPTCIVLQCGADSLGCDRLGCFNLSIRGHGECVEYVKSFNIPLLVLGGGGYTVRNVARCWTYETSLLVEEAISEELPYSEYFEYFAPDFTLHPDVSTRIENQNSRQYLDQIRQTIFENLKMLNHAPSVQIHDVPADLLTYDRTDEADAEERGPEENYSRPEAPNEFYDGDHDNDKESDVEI
# HDAC3, sequence (Q9Y618 395-489 partner limits assumed): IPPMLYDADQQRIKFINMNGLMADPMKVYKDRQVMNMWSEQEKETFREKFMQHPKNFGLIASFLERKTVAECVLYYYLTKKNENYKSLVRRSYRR
# T1 sequence (P56524 whole entry): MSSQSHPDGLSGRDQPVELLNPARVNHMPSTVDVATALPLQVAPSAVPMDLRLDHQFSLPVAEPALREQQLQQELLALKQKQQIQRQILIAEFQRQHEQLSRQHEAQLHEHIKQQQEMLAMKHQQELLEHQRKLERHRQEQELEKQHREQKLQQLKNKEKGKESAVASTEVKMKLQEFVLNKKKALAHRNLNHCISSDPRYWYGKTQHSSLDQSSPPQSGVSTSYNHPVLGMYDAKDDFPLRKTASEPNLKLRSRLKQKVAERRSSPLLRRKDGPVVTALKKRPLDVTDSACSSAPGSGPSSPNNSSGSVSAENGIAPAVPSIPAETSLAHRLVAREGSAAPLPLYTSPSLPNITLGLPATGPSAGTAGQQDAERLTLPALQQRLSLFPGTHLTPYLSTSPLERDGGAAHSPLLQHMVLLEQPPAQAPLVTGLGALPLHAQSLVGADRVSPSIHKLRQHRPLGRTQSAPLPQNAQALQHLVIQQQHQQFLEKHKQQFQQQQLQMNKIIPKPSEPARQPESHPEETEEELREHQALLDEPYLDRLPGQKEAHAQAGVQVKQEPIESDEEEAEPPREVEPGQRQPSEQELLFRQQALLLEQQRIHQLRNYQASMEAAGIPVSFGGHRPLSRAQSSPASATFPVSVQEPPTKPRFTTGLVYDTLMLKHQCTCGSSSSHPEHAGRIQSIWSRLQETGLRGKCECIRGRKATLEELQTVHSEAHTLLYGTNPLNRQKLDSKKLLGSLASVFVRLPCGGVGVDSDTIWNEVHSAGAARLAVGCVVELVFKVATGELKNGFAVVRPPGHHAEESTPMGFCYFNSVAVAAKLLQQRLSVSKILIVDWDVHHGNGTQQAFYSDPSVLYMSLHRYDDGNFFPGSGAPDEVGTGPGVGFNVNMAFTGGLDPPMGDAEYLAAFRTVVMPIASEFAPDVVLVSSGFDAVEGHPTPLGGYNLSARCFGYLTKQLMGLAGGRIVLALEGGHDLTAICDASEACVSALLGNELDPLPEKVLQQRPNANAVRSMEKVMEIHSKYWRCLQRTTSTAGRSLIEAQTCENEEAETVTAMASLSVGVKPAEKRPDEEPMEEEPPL
structure (smiles),measurement,setting,value
"COc1cc2nc(-c3cc(C)oc3C)cc(NCC3CCN(c4ncc(C(=O)NO)cn4)CC3)c2cc1OC [CM-1758, 2-[4-[[[2-(2,5-dimethyl-3-furyl)-6,7-dimethoxy-4-quinolyl]amino]methyl] -1-piperidyl]pyrimidine-5-carbohydroxamic acid]",CC50 at 72 h,Cytotoxicity (LC50),2.41 µM
same,IC50,HDAC2,0.031 µM
same,inhibition at 10 µM,"HDAC2; 10 µM, source data of Fig. 1B",90%
same,tolerability,"Rag2-/-γc-/- mice; 10 mg/kg i.p. daily over 3 weeks, 1-week washout, Rag2-/-γc-/- mice",well tolerated
same,ALT (Counts (U/L)),Rag2-/-γc-/- mice; Week 3,17 U/L and 4.5 U/L and 5.5 U/L and 9 U/L
same,AST (Counts (U/L)),Rag2-/-γc-/- mice; Week 3,148.5 U/L and 43 U/L and 38.5 U/L and 74 U/L
same,Bilirubin (Counts (mg/dl)),Rag2-/-γc-/- mice; Week 3,0 mg/dl (2×) and 0.05 mg/dl (2×)
same,HDL (Counts (mmol/l)),Rag2-/-γc-/- mice; Week 3,3.2 mmol/L and 2.05 mmol/L and 0.6 mmol/L and 2.55 mmol/L
same,LCLC3 (Counts (mmol/l)),Rag2-/-γc-/- mice; Week 3,0.2 mmol/l (2×) and 0.1 mmol/l (2×)
same,UREA (Counts (mg/dl)),Rag2-/-γc-/- mice; Week 3,20.7 mg/dL and 26.4 mg/dL and 33.1 mg/dL and 24.1 mg/dL
same,ALT (Counts (U/L)),Rag2-/-γc-/- mice; Week 4,14.1 U/L and 27 U/L and 21.9 U/L and 7.5 U/L
same,AST (Counts (U/L)),Rag2-/-γc-/- mice; Week 4,46.8 U/L and 244.8 U/L and 155.7 U/L and 62.1 U/L
same,Bilirubin (Counts (mg/dl)),Rag2-/-γc-/- mice; Week 4,0 mg/dL and 0.06 mg/dL and 0.12 mg/dL and 0.03 mg/dL
same,HDL (Counts (mmol/l)),Rag2-/-γc-/- mice; Week 4,2.61 mmol/L and 2.43 mmol/L and 2.31 mmol/L and 2.37 mmol/L
same,LCLC3 (Counts (mmol/l)),Rag2-/-γc-/- mice; Week 4,0.21 mmol/l (3×) and 0.27 mmol/l
same,UREA (Counts (mg/dl)),Rag2-/-γc-/- mice; Week 4,26.61 mg/dl and 26.58 mg/dl (2×) and 31.89 mg/dl
same,Hematocrit (Counts (%)),Rag2-/-γc-/- mice; 7d Washout,51% and 54.2% and 45.9% and 52.8%
same,Hemoglobin (Counts (g/dl)),Rag2-/-γc-/- mice; 7d Washout,17.7 g/dL and 17.6 g/dL and 16.1 g/dL and 17.4 g/dL
same,PLT (Counts (K/O)),Rag2-/-γc-/- mice; 7d Washout,1572 K/O and 1571 K/O and 1050 K/O and 1405 K/O
same,RBC (Counts (K/O)),Rag2-/-γc-/- mice; 7d Washout,9.8 K/O and 10.2 K/O and 8.86 K/O and 10.25 K/O
same,WBC (Counts (K/O)),Rag2-/-γc-/- mice; 7d Washout,1.4 K/O and 1.52 K/O and 3.74 K/O and 2.44 K/O
same,Hematocrit (Counts (%)),Rag2-/-γc-/- mice; Week 1,48.1% and 47% and 47.7% and 46.6%
same,Hemoglobin (Counts (g/dl)),Rag2-/-γc-/- mice; Week 1,17.8 g/dL and 17.5 g/dL and 18 g/dL and 17.7 g/dL
same,PLT (Counts (K/O)),Rag2-/-γc-/- mice; Week 1,866 K/O and 806 K/O and 880 K/O and 983 K/O
same,RBC (Counts (K/O)),Rag2-/-γc-/- mice; Week 1,9.36 K/O and 9.79 K/O and 10.18 K/O (2×)
same,WBC (Counts (K/O)),Rag2-/-γc-/- mice; Week 1,1.68 K/O and 1.52 K/O and 1.6 K/O and 1.16 K/O
same,Hematocrit (Counts (%)),Rag2-/-γc-/- mice; Week 2,51.3% and 48.5% and 45.7% and 50.4%
same,Hemoglobin (Counts (g/dl)),Rag2-/-γc-/- mice; Week 2,18.2 g/dL and 18 g/dL and 17.2 g/dL and 17.7 g/dL
same,PLT (Counts (K/O)),Rag2-/-γc-/- mice; Week 2,1496 K/O and 1628 K/O and 1531 K/O and 1908 K/O
same,RBC (Counts (K/O)),Rag2-/-γc-/- mice; Week 2,10.07 K/O and 9.97 K/O and 9.38 K/O and 10.01 K/O
same,WBC (Counts (K/O)),Rag2-/-γc-/- mice; Week 2,10.02 K/O and 4.3 K/O and 5.26 K/O and 5.18 K/O
same,Hematocrit (Counts (%)),Rag2-/-γc-/- mice; Week 3,47.2% and 36.5% and 46.9% and 44.2%
same,Hemoglobin (Counts (g/dl)),Rag2-/-γc-/- mice; Week 3,17.4 g/dL and 13.4 g/dL and 17.3 g/dL and 16.8 g/dL
same,PLT (Counts (K/O)),Rag2-/-γc-/- mice; Week 3,870 K/O and 786 K/O and 1040 K/O and 1436 K/O
same,RBC (Counts (K/O)),Rag2-/-γc-/- mice; Week 3,9.53 K/O and 7.63 K/O and 9.68 K/O and 9.71 K/O
same,WBC (Counts (K/O)),Rag2-/-γc-/- mice; Week 3,3.3 K/O and 2.28 K/O and 4.16 K/O and 1.16 K/O
same,CD11b in blood samples,"[1]; MV4-11 i.v., 10 mg/kg i.p.",statistically significant increase in CD11b
same,overall survival (OS),"[1]; MV4-11 i.v., 10 mg/kg i.p., 5 days on/2 off, 7 weeks",increased overall survival
same,body weight of mice,"[1]; day 20, in g (unit assumed)",25 and 24.9 and 24 and 26.8 and 24.5 and 23.3 and 20.4 and 22.9 and 24.6 and 23.8 and 22.8 and 23
same,body weight of mice,"[1]; day 23, in g (unit assumed)",23.9 and 24.6 and 28.5 and 27.5 and 23.5 and 23 and 19.4 and 23.1 and 23.8 and 22.2 and 22.5 and 22.4
same,body weight of mice,[1]; day 25,23.7 (2×) and 23.8 and 27.9 and 26.9 and 23.2 and 22.7 and 19.6 and 22.8 and 21.9 and 22.2 and 22
same,body weight of mice,[1]; day 28,23.6 (2×) and 23.8 and 26.5 and 26.6 and 23.2 and 23.1 and 18.9 and 21.4 and 21.2 and 21.7
same,body weight of mice,[1]; day 30,23.1 and 23.9 and 25.7 and 26.6 and 22.3 and 22.6 (2×) and 18.6 and 21 (2×) and 22.1
same,body weight of mice,[1]; day 31,23.5 and 22.8 and 25.9 and 26.7 and 22.3 and 22.1 (2×) and 18.3 and 21.8 and 21.3 and 17.9
same,body weight of mice,"[1]; day 35, in g (unit assumed)",24 and 22.9 and 26.1 and 26.8 and 22.4 and 23.1 and 19.4 and 22.5 and 22 and 22.1
same,body weight of mice,[1]; day 37,23.4 and 24.4 (2×) and 27.2 and 26.3 and 22.9 and 18.3 and 23.1 and 22 and 22.7
same,body weight of mice,"[1]; day 42, in g (unit assumed)",25.8 and 24.7 and 28.1 and 26.1 and 23.8 and 24.5 and 20.5 and 23.3
same,body weight of mice,"[1]; day 44, in g (unit assumed)",26 and 25.3 and 28.3
same,CD11b levels in blood samples,"[1]; mice engrafted intravenously with MV4-11 cells, individual mice (Fig 3E)",26.3% and 16.2% and 21.1% and 11.9% and 23.1% and 11% and 20.5%
same,"Survival time (Kaplan-Meier, event = 1)","[1]; mice engrafted with MV4-11 cells intravenously, individual mice (Fig 3D)",25 days and 32 days and 46 days and 48 days and 53 days and 57 days
same,overall survival (OS),"[2]; MOLM-13 i.v., 10 mg/kg i.p., 5 days on/2 off, 2 weeks",not having observed an increase in OS
same,Body weight,[2]; day 4,25.4 and 23.9 (2×) and 24.4 and 22.7 (2×) and 23.8 and 21.5 and 23 and 21.9
same,Body weight,[2]; day 6,25.4 and 23 and 24.3 and 22 and 22.6 and 21.4 and 22.8 (2×) and 22.1 and 22.4
same,Body weight,"[2]; day 8, in g (unit assumed)",24.7 and 22.7 and 23.8 and 22.6 and 21.8 and 21.7 and 22.1 and 21.9 and 22 and 22.8
same,Body weight,[2]; day 11,24.3 and 22.3 and 23.6 and 21.6 and 21.7 (2×) and 20.7 and 21 and 21.5 and 22.6
same,Body weight,[2]; day 13,24.3 and 22.6 and 23.5 and 21.5 (2×) and 22.1 and 21.4 and 21.9 and 21.7 and 22.4
same,IC50,HDAC3,0.014 µM
same,inhibition at 10 µM,"HDAC3; 10 µM, source data of Fig. 1B",90%
same,IC50,HDAC4,0.13 µM
same,inhibition at 10 µM,HDAC4; 10 µM,97%
same,"efflux ratio at 120 min, 2 µM","CACO-2 permeability; Caco-2, pH 7.4",> 1050
same,"Papp A→B at 120 min, 2 µM","CACO-2 permeability; Caco-2, pH 7.4, A to B",< 0.1 nm/s
same,IC50,HDAC5,0.27 µM
same,inhibition at 10 µM,HDAC5; 10 µM,98%
